Values after ≈ are worked out from the molar mass of the structure shown. Read-outs that look alike come from different tables or passages of the source.
Legend:
[1] = Stability of intravenous solutions at pH 11.0 to 11.5 (high performance liquid chromatography); assay type: physicochemical; conditions: intravenous solution solubilized by trisodium phosphate
Experimental: The preferred composition of the present invention employs trisodium orthophosphate as the base for solubilization of BBM-928A. Solutions having concentrations of BBM-928A of from 1 to 5 mg per milliliter are readily prepared when 0.65 parts by weight of trisodium orthophosphate per part by weight of BBM-928A are employed. Such solutions have a pH within the range of 11.0 to 11.5. If an amount of the base is employed which is insufficient to provide a pH value of pH 11.0 the desired level of solubilization of the BBM-928A is not achieved. At pH values in excess of 11.5 decomposition through hydrolysis of the BBM-928A becomes so extensive as to result in loss of utility of the solutions. […] Such solutions should not be kept for longer periods but should be prepared extemporaneously prior to use. […]
The resulting bulk powder is then filled into glass vials at the rate of 16.5 mg. per vial (10 mg. BBM-928A), and the vials sealed by a proper closure to maintain the anhydrous sterile condition. […] Each vial is constituted for intravenous injection with the desired quantity of sterile water for injection in an amount of 2 ml. or more per vial (conc. up to 5 mg/ml. and preferably from 1 to 5 mg/ml. of BBM-928A). […]

[2] = Solubility in solvents and pharmaceutical vehicles; assay type: physicochemical
Experimental: Is thus evident that due to the hydrolytic sensitivity and insolubility of BBM-928A that a formidable pharmaceutical formulation problem is presented for the intravenous use thereof.
The disodium salt of BBM-928A has been prepared by dissolving BBM-928A in aqueous sodium hydroxide at pH 10.5, washing with chloroform, and lyophilizing the aqueous solution. Its solubility in water is 0.5 mg/ml. In the dry state disodium BBM-928A gradually decomposes to BBM-928B and BBM-928C at higher temperatures. The following Table exemplifies this:
Limited solubility in the following solvents was observed.
The preferred composition of the present invention employs trisodium orthophosphate as the base for solubilization of BBM-928A. Solutions having concentrations of BBM-928A of from 1 to 5 mg per milliliter are readily prepared when 0.65 parts by weight of trisodium orthophosphate per part by weight of BBM-928A are employed. Such solutions have a pH within the range of 11.0 to 11.5. If an amount of the base is employed which is insufficient to provide a pH value of pH 11.0 the desired level of solubilization of the BBM-928A is not achieved. At pH values in excess of 11.5 decomposition through hydrolysis of the BBM-928A becomes so extensive as to result in loss of utility of the solutions. […] Such solutions should not be kept for longer periods but should be prepared extemporaneously prior to use. Conventional aseptic techniques conforming to the criteria of both good laboratory practices and good manufacturing practices should be employed in preparing the compositions of the present invention.

[3] = chloroform and methylene chloride; cited from earlier work

COc1ccc2nc(C(=O)N[C@@H]3COC(=O)[C@H](C(C)(C)O)N(C)C(=O)CN(C)C(=O)CNC(=O)[C@@H]4[C@@H](OC(C)=O)CC=NN4C(=O)[C@H](NC(=O)c4nc5ccc(OC)cc5cc4O)COC(=O)[C@H](C(C)(C)O)N(C)C(=O)CN(C)C(=O)CNC(=O)[C@@H]4[C@@H](OC(C)=O)CC=NN4C3=O)c(O)cc2c1 [BBM-928A]
period of sufficient stability for use following preparation [1]: up to 4 hours | solubility ([2]; Aqueous L-arginine 10%, yellow solution with a slight haze): 1000 µg/mL (≈ 701 µM) | solubility ([2]; Ethyl lactate, slight haze): about 1 mg/ml | solubility ([2]; Ethyl levulinate, standing in contact with the solvent overnight): 500 µg/mL (≈ 350 µM) | solubility ([2]; Lactic acid U.S.P.): 1000 µg/mL (≈ 701 µM) | solubility in 22 commonly employed pharmaceutical vehicles ([2]; poloxamer polyols, benzyl alcohol, ethanol, fixed oils, propylene glycol, polyethylene glycol 400, urea, povidone, nicotinamide, dextrose solutions etc.): virtually insoluble | solubility [3]: readily soluble

— patent publication US4416874A, “Injectable compositions of BBM-928A” (Bristol-Myers Company, priority 1982, dated 1983)
